“And” between values parts separate entries of the source, which are not always exact repeats. Identical values can stand only once.
Columns and labels:
[1] = system: G2T1 (Na+) dimeric HTelo G4 DNA, AGGG(TTAGGG)7; test: CD melting with G2T1 (Na+); format: binding, human; conditions: for ΔTm G2T1 (Na+): CD melting at 295 nm, 25 to 95 °C at 2 °C/min, 100 mM NaCl, 10 mM Li cacodylate, pH 7.3, [G4 unit] 6 μM (3 μM dimeric sequence), [salphen unit] 12 μM
Procedure: (§1) Next, the DNA binding properties of the monomeric and dimeric compounds were studied. […] The following notation is used: […] The CD melting experiments were conducted solely with Na^+ stabilized DNA, which forms an antiparallel topology in solution (cf., in the presence of K^+ a mixture of topologies is observed). During the assay the temperature was increased from 25 to 95 °C upon which the intensity of signals with negative ellipticity at ca. 265 nm and positive ellipticity at ca. 295 (characteristic of an antiparallel G4 structure) decreased-see Figure 4a. This indicates the expected unfolding of the G4 DNA structure as the temperature increases. The changes in intensity were subsequently used to produce the corresponding melting curves (Figure 4b) for each sequence in the absence and presence of the different compounds under study. From these curves, the ΔTm values for the different sequences and compounds were determined, and the results are summarized in Figure 4c (see Supplementary Table 1 for values). […] G-Quadruplex oligonucleotides were purchased from Eurogentec (Belgium), and CT-DNA was purchased from Sigma-Aldrich. […] Prior to use, the DNA stock solutions were annealed by heating at 95 °C for 5 min and then cooling to room temperature overnight. Experiments were carried out on a Jasco J-810 spectrophotometer using a 1 cm quartz cuvette. Temperature was controlled using a Peltier module. The signal at 295 nm was monitored as temperature was increased for 25 to 95 °C at a rate of 2 °C/min. CD melting experiments were carried out with the appropriate G4 DNA (100 mM NaCl, 10 mM Li cacodylate, pH 7.3). Sample preparation was carried out by combining stock solutions of ligand and DNA in the appropriate buffer. […] Melting temperatures were obtained by curve fitting in Graphpad Prism 8. The data was normalized and fitted to a variable slope Hill equation, and the melting temperature was defined at the temperature at which y = 0.5.

[2] = system: G2T6 (K+) dimeric HTelo G4 DNA; test: Emission titration with G2T6 (K+); format: binding, human; conditions: Table S2, unit not given, ligand 2 μM, 100 mM KCl, 10 mM Li cacodylate, pH 7.3, exc 440 nm, em 590 nm, triplicate
Procedure: (§2) Next, emission titrations were carried out with the emissive Pt^II compounds M2 and D3–8 and G4/duplex DNA to obtain association constants. Both Na^+ and K^+ stabilized monomeric and dimeric G4 DNA were investigated. Additionally, titrations were carried out with CT-DNA to evaluate the selectivity for G4 versus duplex DNA. Figure 5 summarizes the obtained results (see Figures S24–S37 and Table S2 for a full set of titration data). First discussed are the experiments conducted in Na^+ buffer, in which the G4 topology formed is antiparallel.[41] […] As discussed previously, this could potentially be caused by a “sandwiched” binding mode in which the metal-salphen complex sits between two G-quadruplex units. For dimeric metal-salphen complexes D3–8, however, there are several differences when compared to the CD melting studies. […] Upon increasing the linker length to a two-amino-acid sequence (RR and KK for compounds D4 and D5, respectively), larger Ka values were obtained with minimal change to the pattern of selectivity. […] Increasing the linker length to an eight-amino-acid sequence (RRRRRRRR) led to a similar stabilization of G2T6, while G1 stabilization increased.
(§3) G-Quadruplex oligonucleotides were purchased from Eurogentec (Belgium), and CT-DNA was purchased from Sigma-Aldrich. Stock solutions were prepared via dilution in the appropriate buffers to concentrations of 300–400 μM determined by UV–vis measurements in which increasing amounts of DNA were added to a cuvette and the absorbance at 260 nm recorded using an Agilent Cary UV 60 spectrometer. Prior to use, the DNA stock solutions were annealed by heating at 95 °C for 5 min and then cooling to room temperature overnight.
(§4) Experiments were carried out using a BMG Clariostar Microplate reader with Greiner Bio-One half-volume (100 μL/well) plates. Excitation was carried out at 440 nm and recorded from 500 to 700 nm in addition to a matrix scan at 590 nm. Titrations were carried out using G1, G2T1, and G2T6 (Na^+) G4 DNA (100 mM NaCl, 10 mM Li cacodylate, pH 7.3); G1, G2T1, and G2T6 (K^+) G4 DNA (100 mM KCl, 10 mM Li cacodylate, pH 7.3); and CT-DNA (100 mM KCl, 10 mM Li cacodylate, pH 7.3). Ligand concentration was kept constant at 2 μM, and the following DNA equivalents were tested: 0, 0.1, 0.2, 0.3, 0.4, 0.5, 0.75, 1, 1.5, 2, 3, and 5 (for CT-DNA 10× base pair equivalents were used, i.e., 1 to 50 BPE). Sample preparation was carried out by preparing stock solutions of double concentration ligand (4 μM) and DNA in the appropriate buffer, before 50 μL of each was added to the appropriate well and mixed. Experiments were conducted in triplicate and binding constants were obtained by curve fitting in Graphpad Prism 8 using eq 1.[46] [drawing 1] 1
(§5) Fluorescence response (y) was fitted against DNA concentration (x); R is the machine response, K is the association constant of ligand and DNA, L is the concentration of ligand, and n is the number of binding sites per DNA. The values of L and n were varied so that that the L was equal to the number of salphen units and n was equal to the number of G4 faces per DNA. The matrix scan results were used to plot the titration curves and 500–700 nm scan results were used to confirm that expected curve shapes and shifts were observed.

[3] = system: G2T1 (K+) dimeric HTelo G4 DNA; test: Emission titration with G2T1 (K+); format: binding, human; conditions: Table S2, unit not given, ligand 2 μM, 100 mM KCl, 10 mM Li cacodylate, pH 7.3, exc 440 nm, em 590 nm, triplicate
Procedure: as §2, §3, §4, §5

[4] = system: G2T6 (Na+) dimeric HTelo G4 DNA, AGGG(TTAGGG)3(TTA)5(TTAGGG)4; test: CD melting with G2T6 (Na+); format: binding, human; conditions: for ΔTm G2T6 (Na+): CD melting at 295 nm, 25 to 95 °C at 2 °C/min, 100 mM NaCl, 10 mM Li cacodylate, pH 7.3, [G4 unit] 6 μM (3 μM dimeric sequence), [salphen unit] 12 μM
Procedure: as §1

[5] = system: G2T1 (Na+) dimeric HTelo G4 DNA; test: Emission titration with G2T1 (Na+); format: binding, human; conditions: Table S2, unit not given, ligand 2 μM, 100 mM NaCl, 10 mM Li cacodylate, pH 7.3, exc 440 nm, em 590 nm, triplicate
Procedure: as §2, §3, §4, §5

[6] = system: G1 (Na+) monomeric HTelo G4 DNA; test: Emission titration with G1 (Na+); format: binding, human; conditions: Table S2, unit not given, ligand 2 μM, 100 mM NaCl, 10 mM Li cacodylate, pH 7.3, exc 440 nm, em 590 nm, triplicate
Procedure: as §2, §3, §4, §5

[7] = system: G1 (Na+) monomeric HTelo G4 DNA, AGGG(TTAGGG)3; test: CD melting with G1 (Na+); format: binding, human; conditions: CD melting at 295 nm, 25 to 95 °C at 2 °C/min; 100 mM NaCl, 10 mM Li cacodylate, pH 7.3; [G4 unit] 6 μM, [salphen unit] 12 μM
Procedure: as §1

[8] = system: G2T6 (Na+) dimeric HTelo G4 DNA; test: Emission titration with G2T6 (Na+); format: binding, human; conditions: Table S2, unit not given, ligand 2 μM, 100 mM NaCl, 10 mM Li cacodylate, pH 7.3, exc 440 nm, em 590 nm, triplicate
Procedure: as §2, §3, §4, §5

[9] = system: G1 (K+) monomeric HTelo G4 DNA; test: Emission titration with G1 (K+); format: binding, human; conditions: Table S2, unit not given, ligand 2 μM, 100 mM KCl, 10 mM Li cacodylate, pH 7.3, exc 440 nm, em 590 nm, triplicate
Procedure: as §2, §3, §4, §5

CT-DNA (duplex DNA) = test: Emission titration with duplex DNA; format: binding; conditions: for Ka for duplex DNA: CT-DNA up to 50 base pair equivalents, 100 mM KCl, 10 mM Li cacodylate, pH 7.3, ligand 2 μM
Procedure: Next, emission titrations were carried out with the emissive Pt^II compounds M2 and D3–8 and G4/duplex DNA to obtain association constants. Both Na^+ and K^+ stabilized monomeric and dimeric G4 DNA were investigated. Additionally, titrations were carried out with CT-DNA to evaluate the selectivity for G4 versus duplex DNA. Figure 5 summarizes the obtained results (see Figures S24–S37 and Table S2 for a full set of titration data). First discussed are the experiments conducted in Na^+ buffer, in which the G4 topology formed is antiparallel.[41] […] As discussed previously, this could potentially be caused by a “sandwiched” binding mode in which the metal-salphen complex sits between two G-quadruplex units. For dimeric metal-salphen complexes D3–8, however, there are several differences when compared to the CD melting studies. […] Upon increasing the linker length to a two-amino-acid sequence (RR and KK for compounds D4 and D5, respectively), larger Ka values were obtained with minimal change to the pattern of selectivity. […] Increasing the linker length to an eight-amino-acid sequence (RRRRRRRR) led to a similar stabilization of G2T6, while G1 stabilization increased. […]
as §3, with “Prior to use, the DNA stock solutions were annealed by heating at 95 °C for 5 min and then cooling to room temperature overnight.” left out
Experiments were carried out using a BMG Clariostar Microplate reader with Greiner Bio-One half-volume (100 μL/well) plates. Excitation was carried out at 440 nm and recorded from 500 to 700 nm in addition to a matrix scan at 590 nm. […]
Fluorescence response (y) was fitted against DNA concentration (x); R is the machine response, K is the association constant of ligand and DNA, L is the concentration of ligand, and n is the number of binding sites per DNA. […]

C[N+](C)(C)CCOc1ccc2c(c1)[O][Pt][O]c1cc(OCC[N+](C)(C)C)ccc1C=Nc1cc(C(=O)NCc3cn(CCOCCn4cc(CNC(=O)c5ccc6c(c5)N=Cc5ccc(OCC[N+](C)(C)C)cc5[O][Pt][O]c5cc(OCC[N+](C)(C)C)ccc5C=N6)nn4)nn3)ccc1N=C2 [Compound D3]
ΔTm G2T1 (Na+) [1]: 15.29 °C
Association constant G2T6 (K+), mean [2]: 0.16
Association constant G2T1 (K+), mean [3]: 0.13
ΔTm G2T6 (Na+) [4]: 6.43 °C and 6.4 °C
Association constant G2T1 (Na+), mean [5]: 0.24
Association constant G1 (Na+), mean [6]: 0.17
ΔTm G1 (Na+) [7]: 3.02 °C and 3.0 °C
Association constant G2T6 (Na+), mean [8]: 0.19
Association constant G1 (K+), mean [9]: 0.17
Ka for duplex DNA (CT-DNA (duplex DNA)): 5.0 × 10^3 M^–1
fold reduction in duplex DNA binding (CT-DNA (duplex DNA); compared with monomeric complex M2): 10 fold

C[N+](C)(C)CCOc1ccc2c(c1)[O][Ni][O]c1cc(OCC[N+](C)(C)C)ccc1C=Nc1ccccc1N=C2 [Compound M1, reference compound]
ΔTm G2T1 (Na+) [1]: 16.58 °C and 16 °C
ΔTm G2T6 (Na+) [4]: 18.77 °C
ΔTm G1 (Na+) [7]: 12.26 °C

C[N+](C)(C)CCOc1ccc2c(c1)[O][Pt][O]c1cc(OCC[N+](C)(C)C)ccc1C=Nc1ccccc1N=C2 [Compound M2, reference compound]
ΔTm G2T1 (Na+) [1]: 21.67 °C and 21 °C
Association constant G2T6 (K+), mean [2]: 1.44
Association constant G2T1 (K+), mean [3]: 0.80
ΔTm G2T6 (Na+) [4]: 19.55 °C and 19 °C
Association constant G2T1 (Na+), mean [5]: 1.70
Association constant G1 (Na+), mean [6]: 1.70
ΔTm G1 (Na+) [7]: 12.72 °C
Association constant G2T6 (Na+), mean [8]: 2.93
Association constant G1 (K+), mean [9]: 2.00
Ka for duplex DNA (CT-DNA (duplex DNA)): 7.31 × 10^4 M^–1

RKKR [Compound D7]
ΔTm G2T1 (Na+) [1]: 16.33 °C and 16.3 °C
fold increase in stabilization of G2T1 ([1]; ΔTm of D7 relative to D4): 1.1 fold
Association constant G2T6 (K+), mean [2]: 0.42
Association constant G2T1 (K+), mean [3]: 0.18
ΔTm G2T6 (Na+) [4]: 13.81 °C and 13.8 °C
fold increase in stabilization of G2T6 ([4]; ΔTm of D7 relative to D3): 2.1 fold
Association constant G2T1 (Na+), mean [5]: 0.36
Association constant G1 (Na+), mean [6]: 0.21
ΔTm G1 (Na+) [7]: 2.6 °C
Association constant G2T6 (Na+), mean [8]: 0.69
Association constant G1 (K+), mean [9]: 0.39

RRRR [Compound D6]
ΔTm G2T1 (Na+) [1]: 14.83 °C
Association constant G2T6 (K+), mean [2]: 0.52
Association constant G2T1 (K+), mean [3]: 0.18
ΔTm G2T6 (Na+) [4]: 13.27 °C
Association constant G2T1 (Na+), mean [5]: 0.29
Association constant G1 (Na+), mean [6]: 0.07
ΔTm G1 (Na+) [7]: 3.49 °C
Association constant G2T6 (Na+), mean [8]: 0.99
Association constant G1 (K+), mean [9]: 0.28
